How the values were obtained:
[1] = tested on: human lung cancer cell lines (A549); assay: SRB screening of inhibitory activity against human lung cancer cell lines (A549); type: cell-based; conditions: A549 cells, compound concentration 1×10^−4 M, SRB method; for inhibition at 100 µM: Homo sapiens, 72 h, read-out: Inhibitory ratio (%)
Excerpt: (§1) The inhibitory activity against colon cancer cell lines (HCT-116) and human lung cancer cell lines (A549) were screened with an SRB method. The procedure of screening was described in the reference (Li M. H., Miao Z. H., Tan W. F. et al. Clin. Cancer Res. 2004, 10(24): 8266-8274).
(§2) Detailed experimental procedure is as follows:
(§3) (1) According to the growth rate of tumor cells, colon cancer cell lines (HCT-116) in logarithmic growth phase were inoculated in 96-well culture plates and allowed to adhere to the wall for 24 h. The medicants with a concentration of 1×10^−4 M were added. Three replicate wells were set for the concentration, and saline control and non-apoptotic well of the corresponding concentration were set. The tumor/cancer cells were incubated for 72 hours at 37 in 5% CO2; (2) the plates were taken out, and the cells were fixed in each well with 10% cold […] (TCA) solution at 4 for 1 hour; (3) the fixation fluid was removed, and the plates were rinsed 5 times with distilled water and naturally dried in air; (4) SRB solution prepared from glacial acetic acid (1%) was added to stain at room temperature for 15 min; (5) the supernatant was removed, and the residue was washed 5 times with 1% acetic acid and air-dried; (6) finally Tris solution was added and the plates were shaken on a plate shaker for 5 min. Absorbance value at 560 nm (A560) was determined by using a wavelength-tunable microplate reader. Enzyme inhibitory ratio was calculated with the following formula: […]
(§4) The activities of the compounds represented by formula (I) or salts thereof of inhibiting colon cancer cell lines (HCT-116) and human lung cancer cell lines A549 at a concentration of 1×10^−4 M were determined.

[2] = tested on: colon cancer cell lines (HCT-116); assay: SRB screening of inhibitory activity against colon cancer cell lines (HCT-116); type: cell-based; conditions: HCT-116 cells, compound concentration 1×10^−4 M, 72 hours incubation, SRB method, A560; for inhibition at 100 µM: Homo sapiens, read-out: Inhibitory ratio (%)
Excerpt: as §1, §2, §3, §4

| Structure (SMILES) | inhibition at 100 µM [1] [%] | inhibition at 100 µM [2] [%] | also measured |
| --- | --- | --- | --- |
| Cc1csc2ncnc(OCc3cc(-c4ccccc4)no3)c12 [Compound S-1, 5-methyl-4-((3-phenyl-isoxazol-5-yl)-methoxy-)-thieno[2,3-d]pyrimidine] | 85 |  |  |
| Cc1ccc(-c2cc(COc3ncnc4scc(C)c34)on2)cc1 [Compound S-2] | 80 |  |  |
| COc1ccc(-c2cc(COc3ncnc4scc(C)c34)on2)cc1 [Compound S-3] | 86.4 | 70 | Inhibitory ratio (%) [2]: 70.0% |
| Cc1csc2ncnc(OCc3cc(-c4ccc(Cl)cc4)no3)c12 [Compound S-5] | 80.8 |  |  |
| Cc1csc2ncnc(OCc3cc(-c4ccccc4Cl)no3)c12 [Compound S-6] | 75.6 |  |  |
| Cc1csc2ncnc(OCc3cc(-c4ccc(Br)cc4)no3)c12 [Compound S-8] | 85.9 |  |  |
| CCc1cc2c(OCc3cc(-c4ccc(OC)cc4)no3)ncnc2s1 [Compound S-83] | 89.4 | 69.6 |  |
| CCc1cc2c(OCc3cc(-c4ccc(Cl)cc4Cl)no3)ncnc2s1 [Compound S-87] |  | 72.7 |  |
| CCc1cc2c(OCc3cc(-c4ccc(Br)cc4)no3)ncnc2s1 [Compound S-88] |  | 60.9 |  |
| Cc1sc2ncnc(OCc3cc(-c4ccccc4)no3)c2c1C [Compound S-101] | 88 | 68.8 | Inhibitory ratio (%) [1]: 88.0% |
| Cc1ccc(-c2cc(COc3ncnc4sc(C)c(C)c34)on2)cc1 [Compound S-102] |  | 62.9 |  |
| COc1ccc(-c2cc(COc3ncnc4sc(C)c(C)c34)on2)cc1 [Compound S-103] |  | 71.1 |  |
| Cc1sc2ncnc(OCc3cc(-c4ccccc4Cl)no3)c2c1C [Compound S-106] | 71.6 |  |  |
| Cc1sc2ncnc(OCc3cc(-c4ccc(Cl)cc4Cl)no3)c2c1C [Compound S-107] |  | 72.9 |  |
| c1ccc(-c2cc(COc3ncnc4sc5c(c34)CCCC5)on2)cc1 [Compound S-121] | 54.1 |  |  |

From US9434741B2, “Thieno[2,3-d]pyrimidine derivatives, preparation method and use thereof” (FUJIAN INSTITUTE OF RESEARCH ON THE STRUCTURE OF MATTER, …, priority 2012, dated 2016)
